From the supplement of paper PMC10307832

Assays:
Test in all cases: relative viability (nuclei count vs DMSO), 5 days (fraction); higher = more cells survive
Nelarabine + Phenformin = compound: COc1nc(N)nc2c1ncn2[C@@H]1O[C@H](CO)[C@@H](O)[C@@H]1O [Nelarabine] + N=C(N)NC(=N)NCCc1ccccc1 [Phenformin] (partner 250 µM)
Outline: (§1)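 Lung cancer cell lines in 1536-well plates got either a single drug or a fixed anchor-drug dose together with five library-drug doses (not always all listed) in √10 steps, by pin tool, on the day after seeding. Nuclei were counted after 5 days, and relative viability is the treated-to-vehicle ratio of nuclei counts. Values are medians of duplicate plates.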

Adavosertib + Navitoclax = compound: C=CCn1c(=O)c2cnc(Nc3ccc(N4CCN(C)CC4)cc3)nc2n1-c1cccc(C(C)(C)O)n1 [Adavosertib] + CC1(C)CCC(c2ccc(Cl)cc2)=C(CN2CCN(c3ccc(C(=O)NS(=O)(=O)c4ccc(N[C@H](CCN5CCOCC5)CSc5ccccc5)c(S(=O)(=O)C(F)(F)F)c4)cc3)CC2)C1 [Navitoclax] (partner 0.5 µM)
Outline: as §1

Adavosertib = compound: C=CCn1c(=O)c2cnc(Nc3ccc(N4CCN(C)CC4)cc3)nc2n1-c1cccc(C(C)(C)O)n1 [Adavosertib]
Outline: (§2)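 Viability is treated-well nuclei as a fraction of vehicle-well nuclei, reported as the median across plates. Before counting, lung cancer cell lines were kept overnight at 37 °C in 1536-well plates, pinned with five √10-spaced library-drug doses on vehicle-anchored plates, and left 5 days without medium change, then fixed, permeabilised and Hoechst-stained in one step, imaged at 4× and counted by MetaXpress. A plate passed only if control CV was below 25% and at least one doubling occurred.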

Nelarabine = compound: COc1nc(N)nc2c1ncn2[C@@H]1O[C@H](CO)[C@@H](O)[C@@H]1O [Nelarabine]
Outline: as §2

Cell Line | relative viability (Nelarabine + Phenformin; first compound 0.01 µM) | relative viability (Nelarabine + Phenformin; first compound 0.03162 µM) | relative viability (Nelarabine + Phenformin; first compound 0.1 µM) | relative viability (Nelarabine + Phenformin; first compound 0.3162 µM) | relative viability (Nelarabine + Phenformin; first compound 1 µM) | relative viability (Adavosertib + Navitoclax; first compound 0.01 µM) | relative viability (Adavosertib + Navitoclax; first compound 0.03162 µM) | relative viability (Adavosertib + Navitoclax; first compound 0.1 µM) | relative viability (Adavosertib + Navitoclax; first compound 0.3162 µM) | relative viability (Adavosertib; 0.01 µM) | relative viability (Adavosertib; 0.03162 µM) | relative viability (Adavosertib; 0.1 µM) | relative viability (Adavosertib; 0.3162 µM) | relative viability (Nelarabine; 0.01 µM) | relative viability (Nelarabine; 0.03162 µM) | relative viability (Nelarabine; 0.1 µM) | relative viability (Nelarabine; 0.3162 µM) | relative viability (Nelarabine; 1 µM)
LXF-289 | 0.532 | 0.574 | 0.526 | 0.571 | 0.524 | 0.959 | 1.03 | 0.992 | 1.03 | 1.02 | 0.988 | 1.01 | 1.04 | 1.11 | 1.04 | 1.01 | 1.05 | 0.995
ChaGo-K-1 | 0.549 | 0.426 | 0.458 | 0.529 | 0.48 | 0.84 | 0.877 | 0.934 | 0.729 | 0.947 | 0.995 | 1.05 | 0.918 | 1.05 | 0.912 | 0.962 | 0.964 | 0.962
NCI-H23 | 0.778 | 0.766 | 0.684 | 0.847 | 0.79 | 0.89 | 0.677 | 0.938 | 0.368 | 0.925 | 0.98 | 0.659 | 0.313 | 1.22 | 0.911 | 1.01 | 0.987 | 0.96
NCI-H1975 | 0.472 | 0.389 | 0.4 | 0.399 | 0.432 | 1.17 | 1.25 | 1.01 | 0.483 | 0.971 | 0.899 | 0.935 | 0.759 | 1.21 | 1.01 | 1.14 | 1.17 | 1.04
NCI-H3122 | 0.381 | 0.356 |  | 0.412 | 0.358 | 1.07 | 1.02 | 1 | 1.01 | 0.987 | 0.95 | 1.04 | 1.03 | 1.1 | 0.929 |  | 1.06 | 1.05
NCI-H838 | 0.701 | 0.549 | 0.608 | 0.595 | 0.628 | 1.16 | 1.11 | 1.18 | 1.13 | 0.978 | 0.919 | 0.996 | 0.948 | 1.3 | 0.893 | 0.986 | 1.05 | 1.04
H3255 |  | 0.361 | 0.341 | 0.321 | 0.337 | 0.374 | 0.473 | 0.508 | 0.447 | 0.888 | 1.07 | 1.02 | 1.08 | 0.998 | 1.08 | 0.987 | 0.963 | 0.97
NCI-H2085 | 0.73 | 0.703 | 0.669 | 0.69 | 0.767 | 1.28 | 1.05 | 1.06 | 1.11 | 0.991 | 1.01 | 1 | 1.03 | 1 | 1.04 | 0.963 | 0.995 | 0.958
NCI-H1355 | 0.442 | 0.413 | 0.418 | 0.433 | 0.455 | 0.996 | 0.848 | 0.987 | 0.852 | 0.991 | 0.99 | 0.948 | 0.986 | 1.18 | 0.875 | 1.03 | 1.04 | 1.02
SK-MES-1 | 0.705 | 0.658 | 0.643 | 0.757 | 0.684 | 1.17 | 1.25 | 1.31 | 1.11 | 0.989 | 1.01 | 0.931 | 0.528 | 1.15 | 1.09 | 1.01 | 1.09 | 1.04
NCI-H1755 | 0.63 | 0.548 | 0.547 | 0.659 | 0.619 | 0.983 | 1 | 1.02 | 0.926 | 1.02 | 0.998 | 0.958 | 0.86 | 1.01 | 0.948 | 0.988 | 1.1 | 1.1
COR-L 105 | 0.497 | 0.594 | 0.473 | 0.454 | 0.458 | 0.886 | 0.72 | 0.746 | 0.617 | 0.865 | 0.885 | 0.807 | 0.747 | 1.01 | 1.12 | 0.971 | 0.842 | 1.04
BEN | 0.264 | 0.269 | 0.276 | 0.221 | 0.273 | 0.0632 | 0.0724 | 0.0727 | 0.0601 | 0.886 | 1.04 | 1.06 | 1.09 | 1.05 | 1.05 | 1.02 | 1.19 | 1.03
NCI-H322M | 0.819 | 0.716 | 0.762 | 0.776 | 0.745 |  | 1.25 | 1.12 | 0.953 | 0.85 | 0.953 | 0.845 | 0.61 | 0.963 | 0.896 | 0.884 | 0.937 | 0.923
HCC-366 | 0.644 | 0.602 | 0.663 | 0.585 | 0.589 | 0.983 | 1.07 | 1.12 | 1.08 | 1.04 | 1.05 | 0.998 | 1.01 | 1.28 | 0.865 | 0.982 | 1.08 | 1.02
NCI-H596 | 0.778 | 0.749 | 0.747 | 0.812 | 0.86 | 0.897 | 1.01 | 1.06 | 0.742 | 1.05 | 1.1 | 0.956 | 0.931 | 1.05 | 1.01 | 1 | 0.992 | 1.06
EPLC-272H | 0.236 | 0.291 | 0.272 | 0.265 | 0.291 | 1.09 | 0.987 | 0.983 | 0.861 | 0.853 | 0.961 | 0.757 | 0.497 | 1.01 | 1 | 0.878 | 0.952 | 0.881
